Assay results: US4762821A, “N',N"-dialkylguanidino dipeptides” (Syntex (U.S.A.) Inc., priority 1986, dated 1988)

Molecular target: T1, ACE from crude rabbit lung acetone powder (Oryctolagus cuniculus, UniProt P12822)
T1 construct: a preparation of ACE from crude rabbit lung acetone powder; from tissue; host or cells: rabbit lung (crude acetone powder)
T1 sequence (P12822 34-1310): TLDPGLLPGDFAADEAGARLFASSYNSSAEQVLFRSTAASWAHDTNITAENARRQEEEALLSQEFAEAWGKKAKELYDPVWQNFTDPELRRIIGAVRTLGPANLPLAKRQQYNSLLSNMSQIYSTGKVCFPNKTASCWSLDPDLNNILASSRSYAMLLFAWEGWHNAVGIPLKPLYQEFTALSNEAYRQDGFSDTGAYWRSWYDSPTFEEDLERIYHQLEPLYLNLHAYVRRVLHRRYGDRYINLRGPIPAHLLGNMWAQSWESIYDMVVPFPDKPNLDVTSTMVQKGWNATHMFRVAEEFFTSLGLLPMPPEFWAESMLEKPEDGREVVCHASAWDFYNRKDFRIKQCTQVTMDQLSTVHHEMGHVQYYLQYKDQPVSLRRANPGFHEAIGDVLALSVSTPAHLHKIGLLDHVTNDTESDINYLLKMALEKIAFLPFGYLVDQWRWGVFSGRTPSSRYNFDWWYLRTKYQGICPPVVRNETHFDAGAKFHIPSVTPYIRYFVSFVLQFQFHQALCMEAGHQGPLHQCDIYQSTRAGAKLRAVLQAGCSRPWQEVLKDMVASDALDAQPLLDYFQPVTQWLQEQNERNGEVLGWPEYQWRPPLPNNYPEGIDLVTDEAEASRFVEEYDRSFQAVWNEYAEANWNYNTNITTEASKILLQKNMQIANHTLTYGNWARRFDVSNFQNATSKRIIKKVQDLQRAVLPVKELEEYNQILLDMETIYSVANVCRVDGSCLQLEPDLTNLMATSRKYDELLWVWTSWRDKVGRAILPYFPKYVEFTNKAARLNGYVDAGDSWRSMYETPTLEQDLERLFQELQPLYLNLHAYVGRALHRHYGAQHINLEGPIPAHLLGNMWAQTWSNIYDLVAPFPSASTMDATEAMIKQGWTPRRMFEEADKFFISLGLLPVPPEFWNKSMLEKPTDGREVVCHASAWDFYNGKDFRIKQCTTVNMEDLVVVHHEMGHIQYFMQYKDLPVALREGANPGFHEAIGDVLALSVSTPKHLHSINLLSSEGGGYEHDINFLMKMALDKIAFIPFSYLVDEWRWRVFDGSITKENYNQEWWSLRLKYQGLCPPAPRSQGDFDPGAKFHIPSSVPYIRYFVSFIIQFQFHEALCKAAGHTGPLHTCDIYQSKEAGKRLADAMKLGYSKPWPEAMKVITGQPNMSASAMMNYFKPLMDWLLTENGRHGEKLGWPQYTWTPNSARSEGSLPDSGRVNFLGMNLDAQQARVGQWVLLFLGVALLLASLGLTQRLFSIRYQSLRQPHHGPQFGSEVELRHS
Assay: in vitro ACE inhibition, hydrolysis of hippuryl-histidyl-leucine (HHL)
Format: biochemical
Details: substrate HHL; test compound studied at concentrations between 10^-9 to 10^-4 M
Procedure: A number of in vitro and in vivo models are available to assess the biological activity of ACE inhibitors. (cf E. W. Petrillo, Jr. and M. A. Ondetti, Medical Res. Rev. 2, 1 (1982) and references therein). A particularly useful in vitro test employs a preparation of ACE from rabbit lung (either crude or purified) and uses the synthetic substrate (hippuryl-histidyl-leucine) as substrate (D. W. Cushman and H. S. Cheung, Biochem. Pharmacol., 20, 1637 (1971)). The substances to be tested are assessed for their ability to block the cleavage of the substrate and doses which cause 50% inhibition of the hydrolysis of the substrate are determined (ID50). In this and other studies, the incorporation of a literature standard (usually captopril) is helpful.
The ACE inhibiting ability of the dipeptides of formula A is assessed in the in vitro model employing a preparation of ACE from crude rabbit lung acetone powder. Hippuryl-histidyl-leucine (HHL) is used as synthetic substrate to be cleaved (hydrolysed) by ACE (D. W. Cushman and H. S. Cheung, Biochem. Pharmacol., 20, 1637 (1971)). The following compounds of formula A, identified by Arabic numerals (referred to above), were assessed for their ability to block the hydrolysis of HHL to the C-terminal dipeptide His-Leu by the ACE preparation.

Compound	ID50 (dose which causes a 50% inhibition of the hydrolysis of HHL) [nM]
CCN=C(NCC)NCCCCC(NC(CC)C(=O)N1CCC[C@H]1C(=O)O)C(=O)O (stereo partly drawn) [(12), N-[2-(N^G,N^G' -diethyl-L-homoargin-N^α -yl)butanoyl]-L-proline]	230
CCCC(NC(CCCCNC(=NCC)NCC)C(=O)O)C(=O)N1CCC[C@H]1C(=O)O (stereo partly drawn) [(13), N-[2-(N^G,N^G' -diethyl-L-homoargin-N^α -yl)pentanoyl]-L-proline]	60
CCN=C(NCC)NCCCC[C@H](N[C@@H](C)C(=O)N1Cc2ccccc2C[C@H]1C(=O)O)C(=O)O [(1), (S)-N-[(S)-2-[N^G,N^G' -diethyl-(S)-homoargin-Nα-yl]propionyl]-THIQ]	60
C[C@H](N[C@@H](CCCCNC(=NCC(F)(F)F)NCC(F)(F)F)C(=O)O)C(=O)N1Cc2ccccc2C[C@H]1C(=O)O [(2), (S)-N-[(S)-2-[N^G,N^G' -bis(2,2,2-trifluoroethyl)-(S)-homoargin-Nα-yl]propionyl]-THIQ]	90
CCCCNC(=NC)NCCCCC(NC(C)C(=O)N1CCC[C@H]1C(=O)O)C(=O)O (stereo partly drawn) [(11), N-[2-(N^G -methyl-N^G' -n-butyl-L-homoargin-N^α -yl)propionyl]-L-proline]	280
CCCCNC(=NC)NCCCC[C@H](N[C@@H](C)C(=O)N1Cc2ccccc2C[C@H]1C(=O)O)C(=O)O [(3), (S)-N-[(S)-2-[N^G -methyl-N^G' -n-butyl-(S)-homoargin-Nα-yl]propionyl]-THIQ]	220
CCN=C(NCC)NCCCC[C@H](N[C@@H](C)C(=O)N1c2ccccc2C[C@H]1C(=O)O)C(=O)O [(10), (S)-N-[(S)-2-[N^G,N^G' -diethyl-(S)-homoargin-Nα-yl]propanoyl]-2-carboxy-2,3-dihydroindole]	180
CCN=C(NCC)NCCCC[C@H](N[C@@H](CC)C(=O)N1Cc2ccccc2C[C@H]1C(=O)O)C(=O)O [(4), (S)-N-[(S)-2-[N^G,N^G' -diethyl-(S)-homoargin-Nα-yl]butanoyl]-THIQ]	65
